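Growth conditions: 96-well plates. Treatment: test compound, 48 hours, 5 concentrations. Analysis: linear interpolation between bracketing concentrations; unreached endpoints set to highest concentration. TGI: total growth inhibition.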

We go through 29 molecules from PubChem BioAssay (NCI).

Holding throughout (assay): NCI-60 cell line screen, 48 h
Assay [1] relates to RPMI-8226 leukemia.
Assay [2] has as its system UACC-62 melanoma.
For assay [3], the system named is SW-620 colon.
The test system of assay [4] is HOP-62 NSCLC.
The test system of assay [5] is OVCAR-4 ovarian.
In assay [6] the test system is SK-MEL-28 melanoma.
Assay [7] has as its system A498 renal.
Assay [8] has as its system SR leukemia.
Assay [9] deals with KM12 colon.

Turning to `CC(=O)OC/C=C/Cn1nc(Br)c(=O)[nH]c1=O`, the TGI in [1], in assay [2], in assay [3], in [4], in assay [5] and in [6] was above 100 µM throughout. In addition, the TGI in assay [7], in [8] and in [9] was above 100 µM in each case.

Consider `CC(C)(C)OC(=O)NCCCCC1NC(=O)[C@@H]2Cc3c([nH]c4ccccc34)C(c3ccccc3)N2C1=O` (some centres not stated), for which the TGI is above 100 µM in assay [1]; 95.6 µM in [2]; above 100 µM in assay [3]; above 100 µM in assay [4]; above 100 µM in assay [5]; above 100 µM in assay [6]. For the same molecule, the TGI was above 100 µM in [7], 62.8 µM in assay [8] and above 100 µM in [9].

In the case of `CCCCN1/C(=N/Nc2n[nH]c(=O)c3ccccc23)SCC1c1ccc(Cl)cc1` (configuration not stated), the TGI is above 100 µM in assay [1]; 20.7 µM in assay [2]; 53 µM in assay [3]; 18.5 µM in assay [4]; above 100 µM in assay [5]; 47.1 µM in assay [6]. Moreover, the TGI in assay [7] turned out to be 66.2 µM; in assay [8] it was 24.6 µM; in assay [9], 19.6 µM.

With `Nc1c(/C=C/c2cc3cc(C4=NCCN4)ccc3o2)[nH]c2cc(C3=NCCN3)ccc12`, the TGI in [1] was above 100 µM; in assay [2], above 100 µM; in assay [3], above 100 µM; in assay [4], 96 µM; in [5], above 100 µM; in assay [6] it was 97.4 µM. Further, the TGI in [7], in [8] and in [9] was above 100 µM in each case.

Consider `CCOC(=O)c1ccc(-c2cccs2)[nH]1`, for which the TGI in [1], in [2], in [3], in assay [4], in assay [5] and in [6] was above 100 µM in each case. The TGI in [7], in assay [8] and in assay [9] was above 100 µM in each case.

Take `CCN(CCCl)c1ccc(NC(=O)c2cc(C(=O)NCCN(C)C)cc(C(=O)Nc3ccc(N(CC)CCCl)cc3)c2)cc1`: the TGI was 23.6 µM in assay [1]; 27.5 µM in assay [2]; 18 µM in assay [3]; 16.4 µM in assay [4]; 43.5 µM in assay [5]; 41.4 µM in assay [6]. Besides, the TGI in assay [7] was 43.1 µM; in assay [8], above 100 µM; in assay [9] it was 25.4 µM.

For the molecule `CCCCCCCCCCCCCCCC(=O)OCC(COP(=O)(O)OCCNC(=O)CCSSc1ccccn1)OC(=O)CCCCCCCCCCCCCCC` (configuration not stated), the TGI in assay [1], in [2], in [3], in assay [4], in [5] and in assay [6] was above 100 µM each time. In addition, the TGI in [7], in assay [8] and in assay [9] was above 100 µM throughout.

In the case of `Cn1c(=O)c2c(n(C)c1=O)n1c(=O)c3ccccc3nc1n2C`, the TGI in assay [1], in assay [2], in assay [3], in assay [4], in assay [5] and in assay [6] was above 100 µM each time. Besides, the TGI in assay [7], in [8] and in assay [9] was above 100 µM throughout.

Take `Nc1nc2c(ccc3ccccc32)[nH]1`: the TGI in assay [1], in [2], in assay [3], in assay [4], in [5] and in assay [6] was above 10 µM throughout. Besides, the TGI in [7], in [8] and in assay [9] was above 10 µM in each case.

On to `O=C1C[C@@]23CCC4(CC2=CCC[C@H]3O1)OCCO4`, for which the TGI in [1], in assay [2], in [3], in assay [4], in [5] and in [6] was above 100 µM each time. For the same molecule, the TGI in assay [7], in [8] and in assay [9] was above 100 µM in each case.

`CSC(=NCCCN=C(NS(=O)(=O)c1ccc(Cl)cc1)SC)NS(=O)(=O)c1ccc(Cl)cc1`: the TGI in [1], in [2], in assay [3], in assay [4], in assay [5] and in [6] was above 100 µM each time. Further, the TGI was 73.1 µM in [7] and above 100 µM in [8].

As for `COc1ccc(NC(=S)Nc2cccc(C)n2)cc1`, the TGI is above 100 µM in [1]; above 100 µM in assay [2]; above 100 µM in assay [3]; 64.3 µM in [4]; above 100 µM in [5]; above 100 µM in assay [6]. Besides, the TGI in assay [7], in assay [8] and in assay [9] was above 100 µM in each case.

Consider `CCOC(=O)c1c(SCCN(CC)CC)n(-c2ccccc2)c(=S)n(-c2ccccc2)c1=O`, for which the TGI in [1] was 3.87 µM; in assay [2], 9.1 µM; in assay [3] it was above 24.2 µM; in assay [4] it was 32.6 µM; in assay [5], 25.5 µM; in [6], 11.9 µM. Further, the TGI was 29 µM in assay [7], 2.6 µM in assay [8] and 28.5 µM in assay [9].

With `CN1Cc2c(ccc3c2OCO3)[C@@H]2[C@H](O)Cc3cc4c(cc3[C@@H]21)OCO4`, the TGI in assay [1] is above 37.4 µM; in [2], above 24 µM; in [3] it was above 100 µM; in assay [4] it was 28.1 µM; in [5], above 100 µM; in assay [6] it was above 100 µM. For the same molecule, the TGI was 6.07 µM in assay [7], above 100 µM in assay [8] and 12.4 µM in assay [9].

On to `C[C@@H](c1ccccc1)N(CC#N)[C@H]1CCC[C@]1(O)/C=C/c1ccc2c(c1)OCO2`, for which the TGI in assay [1] was above 25 µM; in assay [2] it was 7.67 µM; in assay [4], above 25 µM; in [5], above 25 µM; in assay [6], above 25 µM; in assay [7], 6.98 µM. For the same molecule, the TGI in assay [8] and in assay [9] was above 25 µM throughout.

Take `FC(F)(Sc1nc2ccccc2[nH]1)c1nc2ccccc2o1`: the TGI in [1], in [2], in assay [3], in [4], in assay [5] and in [6] was above 100 µM in each case. In addition, the TGI in [7], in assay [8] and in assay [9] was above 100 µM each time.

`O=C1Cc2c(-c3ccccc3)cc(-c3ccc(Cl)cc3)nc2-c2ccccc2N1`: the TGI in assay [1] is above 100 µM; in assay [2] it was above 31 µM; in assay [3] it was above 47.6 µM; in assay [4] it was 12.9 µM; in assay [5], 3.82 µM; in assay [6], above 31.8 µM. Moreover, the TGI in assay [7] was 3.67 µM; in assay [8] it was above 100 µM; in [9] it was 96.1 µM.

`CC(=O)CC(=O)N1CCOC1=O`: the TGI in assay [1], in assay [2], in [3], in [4], in assay [5] and in assay [6] was above 10 µM throughout. For the same molecule, the TGI in assay [7], in assay [8] and in [9] was above 10 µM throughout.

On to `Nn1c(=S)[nH]nc(/C=C/c2c(O)ccc3ccccc23)c1=O`, for which the TGI was above 100 µM in assay [1]; 26.2 µM in assay [2]; above 100 µM in assay [3]; 62.8 µM in assay [4]; 25 µM in [5]; 73.5 µM in [6]. Moreover, the TGI in assay [7] amounted to 69.9 µM; in [8] it was 87.1 µM; in assay [9] it was 59.5 µM.

In the case of `Cc1cc(NS(=O)(=O)c2ccc(NC(NC(=O)OC(C)C)(C(F)(F)F)C(F)(F)F)cc2)nc(C)n1`, the TGI in assay [1], in assay [2], in [3], in assay [4], in [5] and in [6] was above 100 µM each time. In addition, the TGI in assay [7], in assay [8] and in [9] was above 100 µM each time.

As for `CC(C)S1=C2C(=O)CC(C)(C)CC2=Nc2ccccc21` (configuration not stated), the TGI in assay [1], in assay [2], in assay [3], in [4], in assay [5] and in assay [6] was above 100 µM in each case. Besides, the TGI in [7], in assay [8] and in assay [9] was above 100 µM each time.

As to `CC1SCCc2nc3ccccc3n21` (configuration not stated), the TGI in assay [1], in [2], in [3], in assay [4], in [5] and in [6] was above 100 µM throughout. The TGI in [7], in assay [8] and in assay [9] was above 100 µM in each case.

As for `N#Cc1c(N)n(-c2nc3ccccc3s2)c(=O)c2cc([N+](=O)[O-])ccc12`, the TGI in [1] is above 100 µM; in [2] it was 66.8 µM; in assay [3] it was above 100 µM; in assay [4], 22 µM; in assay [5], above 100 µM; in assay [6], above 100 µM. Moreover, the figures for the TGI in assay [7], in assay [8] and in [9] were 98.1 µM, 56.2 µM and above 51.3 µM, respectively.

For the molecule `C(/Cc1ccc2c(c1)OCO2)=N\NC1=NCCCCN1`, the TGI in [1], in [2], in [3], in [4], in assay [5] and in assay [6] was above 100 µM throughout. The TGI is 91.4 µM in [7], above 100 µM in [8] and above 100 µM in assay [9].

Consider `COc1ccc(-c2cc(-c3ccc(Nc4ccnc5cc(C(F)(F)F)ccc45)cc3)nc(N)c2C#N)c2ccccc12`, for which the TGI in assay [1], in assay [2], in assay [3], in [4], in [5] and in assay [7] was above 100 µM in each case. In addition, the TGI in assay [8] and in [9] was above 100 µM throughout.

For the molecule `N#Cc1c2c(c(Nc3ccc(Cl)cc3)n3c1nc1ccccc13)CCCC2`, the TGI in [1] is 36.1 µM; in assay [2], above 100 µM; in assay [3], above 100 µM; in assay [4] it was above 100 µM; in [5], above 96.6 µM; in [6] it was above 100 µM. The TGI in [7], in [8] and in assay [9] was above 100 µM each time.

On to `COc1cc(CC2C(=O)OCC2Cc2ccc(OC)c(OC)c2)ccc1O` (configuration not stated), for which the TGI in assay [1], in assay [2], in [3], in [4], in assay [5] and in assay [6] was above 100 µM in each case. Also, the TGI in assay [7], in assay [8] and in [9] was above 100 µM throughout.

Regarding `Nc1nc2c(c(-c3ccc(F)cc3)n1)COC/C2=C\c1ccc(F)cc1`, the TGI in assay [1], in assay [2], in assay [3], in assay [4], in assay [5] and in assay [6] was above 100 µM throughout. For the same molecule, the TGI in assay [7] was above 100 µM; in assay [8], 43.2 µM; in assay [9] it was 29 µM.

Consider `CCc1n[nH]c(=O)n1-c1ccncc1`, for which the TGI in assay [1], in [3], in assay [4], in assay [5], in [6] and in assay [7] was above 100 µM throughout. Besides, the TGI in assay [8] and in assay [9] was above 100 µM throughout.
